Data published in US6461611B1, “Agents for the prevention of damages caused by stress conditions” (Hadasit Medical Research Services & Development Limited, priority 1998, dated 2002).

Tests used:
myocytes = test: LDH activity released into the medium of normal and hypoxic myocytes; format: cell-based, rat; settings: calphostin C 10 nM or 100 nM in the presence and absence of TRAP (10 μM)
Procedure: FIG. 4B. LDH levels were measured in the medium of normal (A,B,E,G) and hypoxic (C,D,F,H) myocytes. TRAP (10 μM) was added (for 48 h) to normal cells (B,E,G) or prior to subjecting the cells to hypoxia (D,F,H). Cells were treated with calphostin C at 10 nM (E,F) or 100 nM (G,H). LDH levels were determined at 340 nm.
Cell viability under hypoxia conditions was measured by lactate dehydrogenase (LDH) assay of the medium by using diagnostic kit according to the manufacturer's instructions (Sigma, St. Louis, Mo.). Released LDH is a stable enzymatic marker that correlates with cell viability. Total LDH activity was determined in culture medium plus LDH released from the cells after treatment with 0.5% Triton X-100. All results are expressed as mean±SEM of triplicate sample (I—Weiscner, M S et al., 1998. Induction of endothelial cell PAS domain protein-1 by hypoxia: characterization and comparison with hypoxia-inducible factor-1-alpha. Blood, 92(7);2260-8. II—Brooks et al., 1998. Modulation of VEGF production by pH and glucose in retinal muller cells. Curr. Eye Res., 17(9):875-882).

ThR mRNA = test: Northern blot of ThR mRNA level in neonatal rat ventricular myocytes under normal conditions or hypoxia; format: cell-based
Procedure: RNA was prepared using TRI-Reagent (Molecular Research Center, Inc. Cincinnati) according to the manufacturer's instructions. […] For the detection of ThR a 250 nucleotide PCR product was used. The membrane was washed twice for 30 mins. at room temperature with 1×SSC containing 0.1% SDS and twice for 30 mins. at 55° C. with 0.1×SSC, containing 0.1% SDS. The blots were exposed for 2-4 days at −70° C. and the relative amounts of mRNA transcripts were analyzed by laser densitometry using an Ultrascan XL Enhanced Laser Densitometer and normalized relative to an internal β-actin controls.
Primary cultures of neonatal rat ventricular mycocytes were subjected to hypoxia conditions (0% oxygen, 20 torr), and the level of ThR transcripts were compared to the level of the receptor transcripts in cells under normal oxygen levels (21% oxygen). […] The 4.1 kb mRNA was detected following hybridization with full length ThR cDNA and the intensity of the bands was quantitated by densitometry and normalized to the actin transcript levels.
The level of ThR mRNA following hypoxia, in the presence of α-thrombin was also determined. For this, rat ventricular myocytes were subjected to serum free conditions and α-thrombin (5×10^−8M) was added for a period of 48 hours and the level of ThR was determined.
Therefore the effect of interruption of the signaling cascase on the protection effect was analyzed. For this, calphostin C, a protein kinase C (PKC) inhibitor was added during the activation of ThR with TRAP.

With calphostin C the “stressed hypoxic conditions as observed by the released LDH activity” value (myocytes) was “did not affect the stressed hypoxic conditions”, the “protection of ThR transcript level under hypoxia by TRAP” value (ThR mRNA; hypoxia, TRAP activated ThR in the presence of calphostin C (1 nM, 100 nM)) was “showed no longer the protection” and the “level of ThR mRNA” value (ThR mRNA; normal conditions, calphostin C 200 nM) was “did not affect”. The “level of ThR transcripts” value (ThR mRNA; normal conditions, calphostin C (1 nM and 100 nM) added together with TRAP (1 μM)) was “did not affect”.
